Here are results for 3 molecules from publication PMC4598324, “Crystal structures of Bbp from Staphylococcus aureus reveal the ligand binding mechanism with Fibrinogen α” (Protein & Cell, 2015).

Assay [1] has as its target Bone sialoprotein-binding protein (Bbp) residues 273-598 (N2 and N3 domains) (S. aureus) (UniProt Q14U76). As to the kind of experiment: ITC; 500 μmol/L peptide in the syringe titrated into 50 μmol/L Bbp^273−598 in the cell; 25°C; 200 mmol/L NaCl, 20 mmol/L HEPES pH 7.5; Microcal iTC200.
A further assay has as its target T1, Bbp^T582A (Staphylococcus aureus, UniProt Q14U76, T582A).
T1 construct: The fragment of the Bbp gene (corresponding to 273–598 aa) was amplified; GST (pGEX-6p-1) (N); made in house; host or cells: Escherichia coli BL21
T1 sequence (Q14U76 273-598 T582A): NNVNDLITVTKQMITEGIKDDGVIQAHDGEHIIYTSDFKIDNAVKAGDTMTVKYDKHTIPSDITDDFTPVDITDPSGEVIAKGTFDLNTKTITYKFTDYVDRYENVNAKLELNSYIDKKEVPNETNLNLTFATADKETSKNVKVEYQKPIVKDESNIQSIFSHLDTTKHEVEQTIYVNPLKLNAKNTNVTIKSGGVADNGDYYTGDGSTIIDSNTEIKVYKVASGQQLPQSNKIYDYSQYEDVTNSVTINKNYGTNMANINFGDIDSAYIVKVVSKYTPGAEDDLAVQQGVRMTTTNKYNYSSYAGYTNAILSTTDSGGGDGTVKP
The assay is described as follows: Surface plasmon resonance (SPR), immobilized mutant T582A. Conditions: BIAcore T200, T582A mutant immobilized on CM5 chip (3375RU), peptide 62.5 to 0.976 μmol/L in 200 mmol/L NaCl, 20 mmol/L HEPES (pH 7.5), 30 μL/min, binding 60 s, dissociation 120 s. From the text: (§1) Figure 5 SPR analyses of the interactions between Bbp ^273−598 WT and mutants (T582A and L584A) and the Fg α ^561−575 (A–C), respectively. The proteins were immobilized on a BIA-core sensor chip.
(§2) The fragment of the Bbp gene (corresponding to 273–598 aa) was amplified using S. aureus ATCC 25923 genomic DNA by PCR. The gene fragments of mutated proteins Bbp^T582A and Bbp^L584A followed the same protocol. After digestion with BamHI and XhoI (NEB), the amplified fragments were cloned into the prokaryotic expression vector pGEX-6p-1 (GE Healthcare Life Sciences) to produce the GST-Bbp fusion protein and were confirmed by DNA sequencing. The recombinant protein was expressed in Escherichia coli strain BL21 with a high yield.
(§3) The peptide corresponding to the fibrinogen α^561−575 was synthesized as previously described (Vazquez et al., [2011]).
(§4) The interaction affinities between Fg α^561−575 and Bbp^273−598 protein were conducted by surface plasmon resonance (SPR) using BIAcore T200 instrument (GE Healthcare). The wild type Bbp^273−598 protein and two mutants were immobilized, respectively, on a CM5 sensor chip in 10 mmol/L sodium acetate, pH 4.5. The immobilization level was 3375RU. The synthetic peptide in 200 mmol/L NaCl and 20 mmol/L HEPES (pH 7.5) was injected on the protein-coated surface at various concentrations at 30 μL/min. The binding and dissociation was 60 s and 120 s, respectively.

The next assay addresses T2, Bbp^273−598 (Staphylococcus aureus, UniProt Q14U76).
T2 construct: covering residues Asn^273–Pro^598 of Bbp from S. aureus; GST (cleaved; GPLGS remains at the N-terminus) (N, cleaved yes); made in house; host or cells: Escherichia coli BL21
T2 sequence (Q14U76 273-598): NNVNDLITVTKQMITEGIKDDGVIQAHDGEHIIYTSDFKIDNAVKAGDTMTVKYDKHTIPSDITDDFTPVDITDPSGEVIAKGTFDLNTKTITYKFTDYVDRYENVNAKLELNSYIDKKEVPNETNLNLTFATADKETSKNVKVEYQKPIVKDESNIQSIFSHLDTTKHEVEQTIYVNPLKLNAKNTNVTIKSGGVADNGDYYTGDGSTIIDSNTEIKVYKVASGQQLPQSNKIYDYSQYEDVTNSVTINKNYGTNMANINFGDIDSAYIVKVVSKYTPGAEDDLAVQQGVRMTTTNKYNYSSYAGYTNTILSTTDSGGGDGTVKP
The assay is described as follows: Isothermal titration calorimetry (ITC), Fg α^561−575 titrated into Bbp^273−598. The assay is classed as binding. The conditions noted are these: 25°C, Microcal iTC200, cell 50 μmol/L Bbp^273−598, syringe 500 μmol/L peptide, 200 mmol/L NaCl, 20 mmol/L HEPES pH 7.5, first peak not used for analysis.
Description: as §2
The recombinant protein was firstly purified by GST-affinity column and digested with PreScission protease overnight. The eluant was collected and concentrated for further purification using gel filtration chromatography (Superdex-200 column, GE Healthcare) in buffer containing 20 mmol/L HEPES pH 7.5, 200 mmol/L NaCl, 2 mmol/L DTT on the FPLC system (GE Healthcare Life Sciences). The proteins in every step of purification were analyzed by SDS-PAGE.
as §3
ITC experiments were carried out at 25°C using a Microcal iTC200 instrument (GE Healthcare). […] The data were fitted and analyzed using the Origin 7 software package (Microcal).

The target in another assay is T3, Bbp^L584A (Staphylococcus aureus, UniProt Q14U76, L584A).
T3 construct: The fragment of the Bbp gene (corresponding to 273–598 aa) was amplified; GST (pGEX-6p-1) (N); made in house; host or cells: Escherichia coli BL21
T3 sequence (Q14U76 273-598 L584A): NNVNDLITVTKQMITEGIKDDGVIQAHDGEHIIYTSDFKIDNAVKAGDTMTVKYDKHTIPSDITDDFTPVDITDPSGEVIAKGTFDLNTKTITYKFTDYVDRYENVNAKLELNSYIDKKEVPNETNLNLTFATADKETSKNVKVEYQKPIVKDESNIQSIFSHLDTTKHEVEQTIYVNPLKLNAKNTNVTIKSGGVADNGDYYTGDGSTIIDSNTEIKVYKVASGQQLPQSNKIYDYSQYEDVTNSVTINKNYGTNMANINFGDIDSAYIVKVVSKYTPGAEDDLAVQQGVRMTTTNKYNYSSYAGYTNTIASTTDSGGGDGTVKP
The assay is described as follows: Surface plasmon resonance (SPR), immobilized mutant L584A. Conditions: BIAcore T200, L584A mutant immobilized on CM5 chip (3375RU), peptide 62.5 to 0.976 μmol/L in 200 mmol/L NaCl, 20 mmol/L HEPES (pH 7.5), 30 μL/min, binding 60 s, dissociation 120 s.
Description: as §1, §2, §3, §4

Assay [2] addresses T4, Bone sialoprotein-binding protein (Bbp) residues 273-598 (N2 and N3 domains) (S. aureus, UniProt Q14U76 273-598).
T4 chain: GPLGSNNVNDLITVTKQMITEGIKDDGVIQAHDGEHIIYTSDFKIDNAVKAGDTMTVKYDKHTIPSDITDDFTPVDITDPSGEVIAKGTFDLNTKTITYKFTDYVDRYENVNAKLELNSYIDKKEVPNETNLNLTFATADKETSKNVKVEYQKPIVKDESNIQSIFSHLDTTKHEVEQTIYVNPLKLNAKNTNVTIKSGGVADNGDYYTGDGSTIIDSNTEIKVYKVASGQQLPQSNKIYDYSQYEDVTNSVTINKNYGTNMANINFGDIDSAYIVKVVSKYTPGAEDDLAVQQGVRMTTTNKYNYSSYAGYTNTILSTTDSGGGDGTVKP
As to the kind of experiment: SPR.

Where no end group is shown, it is not given here.

In assay [1], “Fibrinogen α chain peptide, residues 561-575” gave a Kd of 290 nM.
Regarding SKQFTSSTSYNRGDS [Fg α^561−575], the figures for the Kd at Bbp^T582A, on Bbp^273−598 and on Bbp^L584A were 537 nM, 290 nM and 456 nM, respectively.
SKQFTSSTSYNRGDS [Fibrinogen α chain peptide, residues 561-575] came in with a Kd in assay [2] of 1620 nM.
